One may read the IC50 as the midpoint of a concentration-inhibition curve.

We go through 17 molecules from ChEMBL document CHEMBL3886937, “Pyrimidodiazepinone compound” (2016).

This experiment can be described thus: [3H]-Gabapentin Binding Assay: A test compound (20 μL) diluted to 5 times of the final concentration with Binding buffer, [3H]-gabapentin diluted to 100 nmol/L with binding buffer [20 μL (final concentration 20 nmol/L)], and the rat cerebral cortex membrane fraction (60 μL; 12 μg membrane fraction) obtained in the (1) above were added to each well of a 96-well round-bottom plate. After being sufficiently mixed, these were allowed to react at room temperature for 1 hour. After the reaction, the reaction sample was suction filtered using a filter plate with 50 μL/well of 0.3 vol % polyethyleneimine added, and a cell harvester. The filter was then washed with ice-cooled Wash buffer (100 mmol/L NaCl, 0.1 w/v % BSA). After being washed, the filter plate was dried, and a scintillation cocktail (MicroScint-20, purchased from PerkinElmer) was added (50 μL/well), and the radioactivity on the filter was measured. The radioactivity obtained in the absence of the test compound was measured as total binding amount, and the radioactivity obtained by addition of an unlabeled gabapentin (final concentration 100 mmol/L) as a test compound was measured as non-specific binding amount.
As to `CCNc1ncc2c(n1)N1CCC[C@H]1CN(c1cccc3ncn(C)c(=O)c13)C2=O`, the 50% inhibitory concentration (IC50) was 3.9 nM.
Next, `CCNc1ncc2c(n1)N1CCC[C@H]1CN(c1cccc3c(=O)n(CCCN(C)C)cnc13)C2=O`: 0.7 nM; `CCNc1ncc2c(n1)N1CCC[C@H]1CN(c1cccc3c(=O)n(CCF)c(C)nc13)C2=O`: 4.8 nM; `CCNc1ncc2c(n1)N1CCC[C@H]1CN(c1cccc3c(=O)n(C)c(COC)nc13)C2=O`: 3.8 nM.
Turning to `CNc1ncc2c(n1)N1CCC[C@H]1CN(c1cncc3c(=O)n(C)cnc13)C2=O`, the IC50 worked out at 4.1 nM.
Next, `CCNc1ncc2c(n1)N1CCC[C@H]1CN(c1cccn3c(=O)cc(C)nc13)C2=O`: 5.2 nM; `CNc1ncc2c(n1)N1CCC[C@H]1CN(c1cccn3c(=O)c(C)c(C)nc13)C2=O`: 4.7 nM; `CCNc1ncc2c(n1)N1CCC[C@H]1CN(c1c[nH]c3ncn(C)c(=O)c13)C2=O`: 2.6 nM.
As to `CCNc1ncc2c(n1)N1CCC[C@H]1CN(c1cccn3c(=O)c(C)c(C)nc13)C2=O`, the 50% inhibitory concentration (IC50) is 2.7 nM.
For the molecule `CNc1ncc2c(n1)N1CCC[C@H]1CN(c1cccc3c(=O)n(CCCN(C)C)cnc13)C2=O`, the concentration for half-maximal inhibition (IC50) stood at 1.2 nM.
Regarding `CCNc1ncc2c(n1)N1CCC[C@H]1CN(c1scc3c(=O)n(C)cnc13)C2=O`, the IC50 is 3 nM.
The value for `CCn1cnc2c(N3C[C@@H]4CCCN4c4nc(NC)ncc4C3=O)cccc2c1=O` was 4 nM; that for `CNc1ncc2c(n1)N1CCC[C@H]1CN(c1c[nH]c3ncn(C)c(=O)c13)C2=O` was 3.6 nM; that for `CCNc1ncc2c(n1)N1CCC[C@H]1CN(c1cccc3c(=O)n(C)c(C)nc13)C2=O` was 2.6 nM.
The value for `CCNc1ncc2c(n1)N1CCC[C@H]1CN(c1cccc3c(=O)n(C)ccc13)C2=O` was 5 nM; that for `CNc1ncc2c(n1)N1CCC[C@H]1CN(c1cccc3c(=O)n(C)cnc13)C2=O` was 2.6 nM; that for `CCCNc1ncc2c(n1)N1CCC[C@H]1CN(c1cccc3c(=O)n(C)cnc13)C2=O` was 3 nM.
